Experimental data: US20240108006A1, “PESTICIDALLY ACTIVE HETEROAROMATIC COMPOUNDS” (SYNGENTA CROP PROTECTION AG, priority 2021, published 2024)
Like-named read-outs stand apart in the source and are kept apart here.

Legend:
Assay type in all cases: in vivo
Chilo suppressalis = test: Example B1: Chilo suppressalis (striped rice stemborer), artificial diet, L2 larvae; conditions: 144 h, application rate of 200 ppm, 6 days after infestation, read-out: control in at least one of the three categories (mortality, anti-feedant effect, or growth inhibition)
Outline: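 L2 larvae (6-8 per well) were placed on dried artificial diet that had been dosed with aqueous dilutions of 10,000 ppm DMSO stock solutions. After 6 days, control was credited if mortality, antifeedant effect or growth inhibition was higher than in untreated samples.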

Myzus persicae = test: Example B7: Myzus persicae (green peach aphid), intrinsic activity, sucrose solution 24-well; conditions: 120 h, read-out: control (mortality)
Excerpt: Example B7: Myzus persicae (Green Peach Aphid). Intrinsic Activity
Test compounds prepared from 10,000 ppm DMSO stock solutions were applied by pipette into 24-well microtiter plates and mixed with sucrose solution. The plates were closed with a stretched Parafilm. A plastic stencil with 24 holes was placed onto the plate and infested pea seedlings were placed directly on the Parafilm. The infested plate was closed with a gel blotting paper and another plastic stencil and then turned upside down. The samples were assessed for mortality 5 days after infestation.
The following compounds gave an effect of at least 80% control at an application rate of 12.5 ppm: […]

Plutella xylostella = test: Example B8: Plutella xylostella (diamond back moth), artificial diet 24-well, eggs; conditions: 192 h, application rate of 200 ppm, 8 days after infestation, read-out: effect in at least one of the two categories (mortality or growth inhibition)
Outline: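 Plutella eggs placed onto dried, compound-treated artificial diet, the aqueous test solutions diluted from 10,000 ppm DMSO stocks. Eight days post-infestation, larvae rated for mortality and growth inhibition relative to untreated controls.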

Spodoptera littoralis = test: Example B9: Spodoptera littoralis (Egyptian cotton leaf worm), cotton leaf discs, L1 larvae; conditions: foliar, 72 h, application rate of 200 ppm, 3 days after infestation, read-out: control in at least one of the three categories (mortality, anti-feedant effect, or growth inhibition)
Experimental: Example B9: Spodoptera littoralis (Egyptian Cotton Leaf Worm)
Cotton leaf discs were placed onto agar in 24-well microtiter plates and sprayed with aqueous test solutions prepared from 10,000 ppm DMSO stock solutions. After drying the leaf discs were infested with five L1 larvae. The samples were assessed for mortality, anti-feeding effect, and growth inhibition in comparison to untreated samples 3 days after infestation. Control of Spodoptera littoralis by a test sample is given when at least one of the categories mortality, anti-feedant effect, and growth inhibition is higher than the untreated sample.

[1] = application rate of 12.5 ppm, 5 days after infestation

Row | Compound | percent control (mortality, anti-feedant effect or growth inhibition) at 200 ppm (Chilo suppressalis) [%] | mortality at 12.5 ppm (Myzus persicae; [1]) [%] | percent effect (mortality or growth inhibition) at 200 ppm (Plutella xylostella) [%] | percent control (mortality, anti-feedant effect or growth inhibition) at 200 ppm (Spodoptera littoralis) [%] | mortality at 12.5 ppm (Myzus persicae) [%]
1 | COc1cc(NC(=O)N[C@@H](C)c2ncnn2-c2ncccn2)c(C2CC2)cc1Cl [Example P355, 1-(4-chloro-2-cyclopropyl-5-methoxy-phenyl)-3-[(1S)-1-(2-pyrimidin-2-yl-1,2,4-triazol-3-yl)ethyl]urea] | ≥ 80 | ≥ 80 |  |  | 
2 | C[C@H](NC(=O)Nc1ccc(F)cc1S(C)(=O)=O)c1ncnn1-c1ncccn1 [Example P99, 1-(4-fluoro-2-methylsulfonyl-phenyl)-3-[(1S)-1-(2-pyrimidin-2-yl-1,2,4-triazol-3-yl)ethyl]urea] |  | ≥ 80 |  |  | 
3 | COc1cc(Cl)c(NC(=O)N[C@@H](C)c2ncnn2-c2ncccn2)cc1OC [Example P304, 1-(2-chloro-4,5-dimethoxy-phenyl)-3-[(1S)-1-(2-pyrimidin-2-yl-1,2,4-triazol-3-yl)ethyl]urea] |  | ≥ 80 | ≥ 80 |  | 
4 | CC(C)Oc1cc(NC(=O)N[C@@H](C)c2ncnn2-c2ncccn2)c(F)cc1Br [Example P221, 1-(4-bromo-2-fluoro-5-isopropoxy-phenyl)-3-[(1S)-1-(2-pyrimidin-2-yl-1,2,4-triazol-3-yl)ethyl]urea] | ≥ 80 | ≥ 80 | ≥ 80 |  | 
5 | C[C@H](NC(=O)Nc1cc(Oc2ccc(C#N)cn2)c(Cl)cc1Cl)c1ncnn1-c1ncccn1 [Example P274, 1-[2,4-dichloro-5-[(5-cyano-2-pyridyl)oxy]phenyl]-3-[(1S)-1-(2-pyrimidin-2-yl-1,2,4-triazol-3-yl)ethyl]urea] | ≥ 80 | ≥ 80 | ≥ 80 |  | 
6 | C[C@H](NC(=O)Nc1ccc(C#N)cc1Br)c1ncnn1-c1ncccn1 [Example P30, 1-(2-bromo-4-cyano-phenyl)-3-[(1S)-1-(2-pyrimidin-2-yl-1,2,4-triazol-3-yl)ethyl]urea] | ≥ 80 | ≥ 80 |  |  | 
7 | C[C@H](NC(=O)Nc1cc(Oc2ncccn2)c(Cl)cc1Cl)c1ncnn1-c1ncccn1 [Example P138, 1-(2,4-dichloro-5-pyrimidin-2-yloxy-phenyl)-3-[(1S)-1-(2-pyrimidin-2-yl-1,2,4-triazol-3-yl)ethyl]urea] | ≥ 80 | ≥ 80 | ≥ 80 |  | 
8 | CSc1cc(Cl)c(C(F)(F)F)cc1NC(=O)N[C@@H](C)c1ncnn1-c1ncccn1 [Example P360, 1-[4-chloro-2-methylsulfanyl-5-(trifluoromethyl)phenyl]-3-[(1S)-1-(2-pyrimidin-2-yl-1,2,4-triazol-3-yl)ethyl]urea] | ≥ 80 | ≥ 80 |  | ≥ 80 | 
9 | C[C@H](NC(=O)Nc1ccc(Br)cc1Br)c1ncnn1-c1ncccn1 [Example P130, 1-(2,4-dibromophenyl)-3-[(1S)-1-(2-pyrimidin-2-yl-1,2,4-triazol-3-yl)ethyl]urea] | ≥ 80 | ≥ 80 | ≥ 80 | ≥ 80 | 
10 | C[C@H](NC(=O)Nc1cc2c(cc1Br)OC(F)(F)O2)c1ncnn1-c1ncccn1 [Example P79, 1-(6-bromo-2,2-difluoro-1,3-benzodioxol-5-yl)-3-[(1S)-1-(2-pyrimidin-2-yl-1,2,4-triazol-3-yl)ethyl]urea] | ≥ 80 | ≥ 80 | ≥ 80 | ≥ 80 | 
11 | CC(NC(=O)Nc1ccc(Br)cc1OC(F)F)c1nccnc1-c1ncccn1 (centres unmarked) [Example P241, 1-[4-bromo-2-(difluoromethoxy)phenyl]-3-[1-(3-pyrimidin-2-ylpyrazin-2-yl)ethyl]urea] | ≥ 80 | ≥ 80 | ≥ 80 | ≥ 80 | 
12 | C[C@H](NC(=O)Nc1cc(F)c(Cl)cc1Cl)c1ncnn1-c1ncccn1 [Example P380, 1-(2,4-dichloro-5-fluoro-phenyl)-3-[(1S)-1-(2-pyrimidin-2-yl-1,2,4-triazol-3-yl)ethyl]urea] | ≥ 80 | ≥ 80 | ≥ 80 | ≥ 80 | 
13 | C[C@H](NC(=O)Nc1ccc(C(F)(F)F)cc1)c1ncnn1-c1ncccn1 [Example P122, 1-[(1S)-1-(2-pyrimidin-2-yl-1,2,4-triazol-3-yl)ethyl]-3-[4-(trifluoromethyl)phenyl]urea] |  | ≥ 80 |  |  | 
14 | C[C@H](NC(=O)Nc1cc(OC(F)(F)F)c(F)cc1Br)c1ncnn1-c1ncccn1 [Example P316, 1-[2-bromo-4-fluoro-5-(trifluoromethoxy)phenyl]-3-[(1S)-1-(2-pyrimidin-2-yl-1,2,4-triazol-3-yl)ethyl]urea] | ≥ 80 | ≥ 80 | ≥ 80 | ≥ 80 | 
15 | COC(=O)c1cc(NC(=O)N[C@@H](C)c2ncnn2-c2ncccn2)c(C(F)(F)F)cc1Cl [Example P210, methyl 2-chloro-5-[[(1S)-1-(2-pyrimidin-2-yl-1,2,4-triazol-3-yl)ethyl]carbamoylamino]-4-(trifluoromethyl)benzoate] | ≥ 80 | ≥ 80 | ≥ 80 |  | 
16 | COC(=O)c1cc(NC(=O)N[C@@H](C)c2ncnn2-c2ncccn2)c(C)cc1C [Example P315, methyl 2,4-dimethyl-5-[[(1S)-1-(2-pyrimidin-2-yl-1,2,4-triazol-3-yl)ethyl]carbamoylamino]benzoate] |  | ≥ 80 |  |  | 
17 | C[C@H](NC(=O)Nc1cc(F)c(C(F)(F)F)cc1F)c1ncnn1-c1ncccn1 [Example P332, 1-[2,5-difluoro-4-(trifluoromethyl)phenyl]-3-[(1S)-1-(2-pyrimidin-2-yl-1,2,4-triazol-3-yl)ethyl]urea] | ≥ 80 | ≥ 80 |  | ≥ 80 | 
18 | CCCOc1cc(NC(=O)N[C@@H](C)c2ncnn2-c2ncccn2)c(F)cc1Br [Example P231, 1-(4-bromo-2-fluoro-5-propoxy-phenyl)-3-[(1S)-1-(2-pyrimidin-2-yl-1,2,4-triazol-3-yl)ethyl]urea] |  | ≥ 80 | ≥ 80 |  | 
19 | C[C@H](NC(=O)Nc1cc(Cl)c(C#N)cc1Cl)c1ncnn1-c1ncccn1 [Example P179, 1-(2,5-dichloro-4-cyano-phenyl)-3-[(1S)-1-(2-pyrimidin-2-yl-1,2,4-triazol-3-yl)ethyl]urea] |  |  |  |  | ≥ 80
20 | COc1cc(NC(=O)N[C@@H](C)c2ncnn2-c2ncccn2)c(Cl)cc1Br [Example P351, 1-(4-bromo-2-chloro-5-methoxy-phenyl)-3-[(1S)-1-(2-pyrimidin-2-yl-1,2,4-triazol-3-yl)ethyl]urea] | ≥ 80 |  | ≥ 80 | ≥ 80 | 
21 | C[C@H](NC(=O)Nc1cc(C(F)(F)F)c(Cl)cc1Cl)c1ncnn1-c1ccc(C#N)cn1 [Example P173, 1-[(1S)-1-[2-(5-cyano-2-pyridyl)-1,2,4-triazol-3-yl]ethyl]-3-[2,4-dichloro-5-(trifluoromethyl)phenyl]urea] | ≥ 80 |  | ≥ 80 | ≥ 80 | 
22 | Cc1cc(Br)c(F)cc1NC(=O)N[C@@H](C)c1ncnn1-c1ncccn1 [Example P367, 1-(4-bromo-5-fluoro-2-methyl-phenyl)-3-[(1S)-1-(2-pyrimidin-2-yl-1,2,4-triazol-3-yl)ethyl]urea] | ≥ 80 |  | ≥ 80 | ≥ 80 | 
23 | C[C@H](NC(=O)Nc1cc(OC(F)(F)C(F)F)c(Cl)cc1Cl)c1ncnn1-c1ccc(C#N)cn1 [Example P251, 1-[(1S)-1-[2-(5-cyano-2-pyridyl)-1,2,4-triazol-3-yl]ethyl]-3-[2,4-dichloro-5-(1,1,2,2-tetrafluoroethoxy)phenyl]urea] | ≥ 80 |  | ≥ 80 | ≥ 80 | 
